# Paper PMC11912471 (Journal of Medicinal Chemistry, 2025)
# Several values for one entry are separate records, joined by “and”; a condition that tells them apart may be missing. Equal entries are not always repeated. Structures can show the parent of a compound that is named as a salt.
# What was measured:
# [1] = system: normal primary human neonatal fibroblast cells; assay: Sulforhodamine B (SRB) cytotoxicity assay, neonatal fibroblasts; format: cell-based; details: 500 μM; for cytotoxic activity against neonatal fibroblasts (in words): 72 h; for Cell cytotoxicity (72 hr @ 500 μM) Neonatal Fibroblasts: percent cytotoxicity
# Method: (§1) Our strategy to identify novel ODC inhibitors was to first screen new analogs for ODC inhibition at 50 μM using our in vitro enzyme activity assay and purified human ODC (Table 1). Those showing significant inhibition were then titrated to provide an ODC IC50 followed by cell-based screening against both cancer (Kelly neuroblastoma) and noncancerous (neonatal fibroblasts) cell lines. For the cancer cell line, higher cytotoxicity was desired and for the noncancerous cell line counter screen, lower cytotoxicity was desired.
# (§2) Normal primary human neonatal fibroblast cells (ATCC) were maintained in DMEM medium (Gibco) supplemented with 10% heat-inactivated fetal bovine serum (Hyclone), penicillin (100 IU/mL), and streptomycin (100 μg/mL), nonessential amino acids (0.1 mM) and sodium pyruvate (1 mM). Kelly neuroblastoma cells (Sigma-Aldrich) were maintained in RPMI medium (Corning) supplemented with 10% heat-inactivated fetal bovine serum (Hyclone), penicillin (100 IU/mL), and streptomycin (100 μg/mL). Cell lines were routinely monitored for mycoplasma contamination using the MycoAlert PLUS Mycoplasma Detection Kit (Lonza).
# (§3) The colorimetric sulforhodamine B (SRB) assay was used to measure cytotoxicity following treatment with ODC inhibitors. Briefly, Kelly neuroblastoma cells and normal primary human neonatal fibroblast cells were plated in transparent flat 96-well plates and allowed to attach overnight. Cells were treated with control or 500 μM ODC inhibitor for 72 h. Cells were then fixed with 10% TCA at 4 °C for 1 h, washed with deionized water, and dried at room temperature. Cells were stained with 100 μL of 0.4% SRB in 1% acetic acid for 20 min at room temperature, rinsed five times with 1% acetic acid and allowed to dry at room temperature. One hundred μL of 10 mM Tris–HCl pH 7.0 was added to each well, shaken for 10 min at room temperature and absorbance was read at 540 nm. Absorbance values were normalized relative to control readings and converted to percentage by multiplying by one hundred. The percent cytotoxicity was then determined by subtracting the relative percentage of the ODC inhibitor treated readings from the control which is 100%.
# [2] = as above; format: cell-based, human; details: human, normal primary neonatal fibroblast cells; 72 hrs @500 µM; supplement csv
# Method: as §1, §2, §3
# [3] = system: Kelly neuroblastoma cells; assay: Sulforhodamine B (SRB) cytotoxicity assay, Kelly neuroblastoma cells; format: cell-based; details: for activity against Kelly neuroblastoma cells (in words): 72 h; for activity against Kelly neuroblastoma cells (in words) / Cell cytotoxicity (72 hr @ 500 μM) Kelly Neuroblastoma: 500 μM; for Cell cytotoxicity (72 hr @ 500 μM) Kelly Neuroblastoma: percent cytotoxicity; for cytotoxicity at 500 µM: Kelly, 72 hrs @500 µM, supplement csv, read-out: Kelly Neuroblasoma Cells (72 hrs @500 µM) %cytotoxicity
# Method: as §1, §2, §3
# [4] = molecular target: T1, purified human ODC enzyme (Homo sapiens, UniProt P11926); assay: In vitro ODC enzyme activity assay; format: biochemical; details: for inhibition at 50 µM: read-out: ODC biochemical inhibition % (50 μM); for IC50: read-out: ODC biochemical inhibition IC50; for lower activity relative to racemic 7: ratio of ODC IC50s
# T1 construct: His6 (C); made in house; host or cells: E. coli BL21(DE3)
# T1 sequence (P11926 1-461): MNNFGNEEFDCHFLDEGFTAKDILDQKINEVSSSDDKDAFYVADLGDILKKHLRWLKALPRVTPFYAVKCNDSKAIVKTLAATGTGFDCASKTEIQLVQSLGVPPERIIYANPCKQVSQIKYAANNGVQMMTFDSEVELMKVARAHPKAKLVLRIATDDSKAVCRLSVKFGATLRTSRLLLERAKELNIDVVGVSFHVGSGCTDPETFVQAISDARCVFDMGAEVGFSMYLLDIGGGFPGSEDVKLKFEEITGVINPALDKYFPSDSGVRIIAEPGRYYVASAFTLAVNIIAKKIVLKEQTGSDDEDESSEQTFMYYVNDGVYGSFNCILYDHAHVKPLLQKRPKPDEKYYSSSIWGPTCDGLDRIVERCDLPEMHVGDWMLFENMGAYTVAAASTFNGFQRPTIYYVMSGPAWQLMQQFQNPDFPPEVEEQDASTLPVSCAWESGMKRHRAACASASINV
# Method: as §1
# In vitro ODC activity was measured using 100 ng of purified human ODC enzyme, as we previously described.[53],[99] ODC was incubated with increasing concentrations of inhibitors for 30 min at room temperature in a buffer containing 25 mM Tris and 0.1 mM EDTA. […] In the cell-based ODC activity assay, Kelly neuroblastoma cells that were treated with 500 μM inhibitors were harvested in a buffer containing 25 mM Tris HCl, 0.1 mM EDTA, and 2.5 mM DTT. […] For both the in vitro and cell-based assay, the microcentrifuge tubes were then placed into scintillation vials containing a piece of filter paper saturated with 200 μL of 0.1 M NaOH to capture the release of radiolabeled carbon dioxide. The samples were incubated in a 37 °C incubator while shaking for 30 min (in vitro) or 2 h (cell-based). The enzymatic reaction was stopped by adding 250 μL of 5 M sulfuric acid to each sample and incubating at 37 °C while shaking for 30 min. The microcentrifuge tubes were removed from the scintillation vials, and 5 mL of scintillation fluid was added. Disintegrations per minute (DPM) of each sample was measured using a TriCarb liquid scintillation counter (PerkinElmer). The specific ODC activity is expressed as nmol CO2/min/mg protein (in vitro) or pmol CO2/min/mg protein (cell-based). The individual ODC inhibitor IC50 values were determined using Graphpad Prism 8.
# [5] = cited from earlier work
# [6] = system: ODC; details: even at high (>500 μM) concentrations; no reference given; cited from earlier work
SMILES,cytotoxic activity against neonatal fibroblasts (in words) [1],Cell cytotoxicity (72 hr @ 500 μM) Neonatal Fibroblasts [1] [%],"cytotoxicity at 72 h, 500 µM [2] [%]",activity against Kelly neuroblastoma cells (in words) [3],Cell cytotoxicity (72 hr @ 500 μM) Kelly Neuroblastoma [3] [%],"relative activity of S-enantiomer over R-enantiomer ([4]; 10-S-PLP vs 10-R-PLP, ODC IC50) [fold]",LE ([4]; ligand efficiency),inhibition at 50 µM [4] [%],IC50 [4],LE ([4]; supplement csv),ODC inhibitory activity (in words) [4],cytotoxicity at 500 µM [3] [%],"pKa of amino group ([5]; ornithine α-amino group, putrescine nitrogen)","pKa printed in Figure 1 ([5]; ornithine α-amino, putrescine)",inhibition of ODC (in words) [6],lower activity relative to racemic 7 [4] [x]
"Cc1ncc(COP(=O)(O)O)c(/C=N/OC[C@H]2CCNC2)c1O [10-S-PLP, ({5-hydroxy-6-methyl-4-[(E)-({[(3S)-pyrrolidin-3-yl]methoxy}imino)methyl]pyridin-3-yl}methoxy)phosphonic acid]",generally more toxic,40±61,40,disappointing neuroblastoma cellular activities,11±4,8,0.47,93,30 nM,"0,47",,,,,,
NOC1CCNCC1 [Compound 9],,,,,,,,0,,,no inhibitory activity,,,,,
NOC[C@@H]1CCNC1 [Compound 10-R],reduced cytotoxic activity,16±13,16,,73±12,,,99,210 nM,,,73,,,,
NCCCCN [putrescine],,,,,,,,,,,,,~10.5,~ 10,not an inhibitor,
NOC[C@H]1CCNC1 [Compound 10-S],reduced cytotoxic activity,9±8,9,,52±18,,,99,100 nM,,,52,,,,
"Cc1ncc(COP(=O)(O)O)c(/C=N/OCC2(F)CCNC2)c1O (centres unmarked) [11-PLP, ({4-[(E)-{[(3-fluoropyrrolidin-3-yl)methoxy]imino}methyl]-5-hydroxy-6-methylpyridin-3-yl}methoxy)phosphonic acid]",generally more toxic,57±20,57,disappointing neuroblastoma cellular activities,9±13,,0.41,92,90 nM,"0,41",,,,,,
NOCC1CNCCO1 (centres unmarked) [Compound 8],reduced cytotoxic activity,0±11,0,,37±11,,,95,780 nM,,,37,,,,
NOCC1CCNC1 (centres unmarked) [Compound 10],reduced cytotoxic activity,14±10,14,,66±8,,,99,360 nM,,,66,,,,
"Cc1ncc(COP(=O)(O)O)c(/C=N/OCCCN)c1O [APA-PLP, ({4-[(E)-[(3-Aminopropoxy)imino]methyl]-5-hydroxy-6-methylpyridin-3-yl}methoxy)phosphonic Acid]",generally more toxic,12±19,12,disappointing neuroblastoma cellular activities,24±9,,0.45,99,150 nM,"0,45",,,,,,
Cc1ncc(COP(=O)(O)O)c(/C=N/OC[C@@H]2CCNC2)c1O [10-R-PLP],generally more toxic,36±17,36,disappointing neuroblastoma cellular activities,52±6,,0.41,96,160 nM,"0,41",,,,,,
NOCCC1CCCCN1 (centres unmarked) [Compound 6],,,,,,,,3,,,no ODC activity,,,,,
"NOCC1CCCNC1 (centres unmarked) [Compound 7, 3-[(Aminooxy)methyl]piperidine Dihydrochloride]",reduced cytotoxic activity,3±6,3,,54±9,,,99,~180 nM and 180 nM,,,54,,,,
NOC[C@@H]1CCCNC1 [Compound 7-R],reduced cytotoxic activity,0±14,0,,49±5,,,99,770 nM,,,49,,,,~4
NOC[C@H]1CCCNC1 [Compound 7-S],reduced cytotoxic activity,0±15,0,,65±6,,,99,700 nM,,,65,,,,~4
